# Experimental data taken from PMC9927457 (Microbiology Spectrum, 2023).
# Experiments:
# CYP2B6 = molecular target: T1, CYP2B6 (Homo sapiens, UniProt P20813); assay: Cytochrome P450 inhibition
# T1 sequence (P20813 1-491): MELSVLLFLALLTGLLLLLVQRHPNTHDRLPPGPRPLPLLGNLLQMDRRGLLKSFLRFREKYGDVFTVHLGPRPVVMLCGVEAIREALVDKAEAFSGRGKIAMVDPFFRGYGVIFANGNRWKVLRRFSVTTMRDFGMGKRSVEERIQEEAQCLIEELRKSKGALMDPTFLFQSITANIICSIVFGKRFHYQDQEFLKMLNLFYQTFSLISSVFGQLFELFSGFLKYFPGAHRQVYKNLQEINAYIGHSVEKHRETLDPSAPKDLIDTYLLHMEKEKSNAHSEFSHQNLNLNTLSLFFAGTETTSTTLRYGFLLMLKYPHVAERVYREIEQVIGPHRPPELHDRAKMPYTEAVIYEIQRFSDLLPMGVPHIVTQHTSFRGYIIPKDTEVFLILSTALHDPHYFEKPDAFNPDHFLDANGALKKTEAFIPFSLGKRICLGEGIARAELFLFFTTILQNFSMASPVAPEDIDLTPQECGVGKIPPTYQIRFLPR
# Experimental: (§1) Table S4. Inhibition of cytochrome P450s.
# (§2) Compounds were tested for inhibition of P450s using the enzyme substrate pairs and conditions noted. IC50s (µM) were calculated. Control P450 inhibitors were included for each isoform.
# (§3) For each compound, the analytical method was developed as follows. Analyte signal was optimized for each compound by ESI positive or negative ionization mode. An MS2 scan or an SIM scan was used to optimize fragmenter voltage and a product ion analysis was used to identify the best fragment for analysis. The collision energy was optimized using a product ion or MRM scan. An ionization ranking was assigned indicating the compound’s ease of ionization. Samples […]
# (§4) 1200 HPLC and a CTC PAL chilled autosampler, all controlled by MassHunter software (Agilent).
# (§5) After separation on a C18 reverse phase HPLC column (Agilent Zorbax StableBond 3.5µm, 2.1 x 30 mm) using an acetonitrile -water gradient system, peaks were analyzed by mass spectrometry (MS) using ESI ionization in MRM mode.
# (§6) (1 picture or pasted object on this page, not shown here)
# (§7) Serial dilutions of a 10 mM stock solution were prepared in acetonitrile:DMSO (9:1). The final DMSO concentration was < 0.2%. Compounds were incubated with human liver microsomes in the presence of 2 mM NADPH in 100 mM potassium phosphate (pH 7.4) containing 5 mM magnesium chloride and a probe substrate, in a 200 µl assay final volume in duplicate. The probe substrate concentrations including bupropion (CYP2B6), amodiaquine (CYP2C8), tolbutamide (CYP2C9), mephenytoin (CYP2C19), dextromethorphan (CYP2D6) and midazolam/testosterone […]
# (§8) After incubation at 37 °C, reactions were terminated by addition of methanol containing internal standard (propranolol) for analytical quantification. The quenched samples were kept on ice for 10 min and centrifuged at 4 °C for 10 min. The supernatant was removed and the probe substrate metabolite was analyzed by LC-MS/MS (Agilent Technologies Triple Quad LC/MS). A decrease in the formation of the metabolite compared to vehicle control
# [1] = Plasma protein binding (Rapid Equilibrium Dialysis); format: in vitro ADME, human; conditions: human; for fraction unbound at 4 h, 5 µM: plasma
# Experimental: Molecule fraction fraction Post-Assay
# Table S5. Plasma protein binding
# Protein binding was measured in human plasma using Rapid Equilibrium Dialysis (RED) devices (Pierce) according to the manufacturers’ instructions; 5 µM compounds in plasma were dialysed against PBS for 4 h at 37C. Compounds were detected by LC-MS/MS in plasma and PBS
# CYP2C9 = CYP2C9 (Homo sapiens, UniProt P11712); assay: biochemical
# Chain of CYP2C9 (P11712 whole entry): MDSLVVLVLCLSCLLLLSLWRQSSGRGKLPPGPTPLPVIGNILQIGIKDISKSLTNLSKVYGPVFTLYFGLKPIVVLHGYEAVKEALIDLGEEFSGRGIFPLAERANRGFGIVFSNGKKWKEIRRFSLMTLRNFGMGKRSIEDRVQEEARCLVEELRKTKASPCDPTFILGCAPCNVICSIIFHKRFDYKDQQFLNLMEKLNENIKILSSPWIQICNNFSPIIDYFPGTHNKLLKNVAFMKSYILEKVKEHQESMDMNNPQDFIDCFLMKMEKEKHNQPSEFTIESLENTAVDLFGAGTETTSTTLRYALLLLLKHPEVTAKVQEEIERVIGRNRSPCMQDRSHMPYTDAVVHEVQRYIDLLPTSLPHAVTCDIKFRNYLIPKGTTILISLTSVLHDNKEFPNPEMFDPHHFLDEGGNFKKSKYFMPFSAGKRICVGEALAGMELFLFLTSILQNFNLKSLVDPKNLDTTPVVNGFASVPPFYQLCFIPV
# Experimental: as §1
# (§9) Compounds were tested for inhibition of P450s using the enzyme substrate pairs and conditions noted. IC50s (µM) were calculated. Control P450 inhibitors were included for each isoform. […]
# as §7, §8
# CYP3A4 = CYP3A4 (Homo sapiens, UniProt P08684); assay: Cytochrome P450 inhibition; format: in vitro ADME; conditions: liver microsomes
# Chain of CYP3A4 (P08684 2-503): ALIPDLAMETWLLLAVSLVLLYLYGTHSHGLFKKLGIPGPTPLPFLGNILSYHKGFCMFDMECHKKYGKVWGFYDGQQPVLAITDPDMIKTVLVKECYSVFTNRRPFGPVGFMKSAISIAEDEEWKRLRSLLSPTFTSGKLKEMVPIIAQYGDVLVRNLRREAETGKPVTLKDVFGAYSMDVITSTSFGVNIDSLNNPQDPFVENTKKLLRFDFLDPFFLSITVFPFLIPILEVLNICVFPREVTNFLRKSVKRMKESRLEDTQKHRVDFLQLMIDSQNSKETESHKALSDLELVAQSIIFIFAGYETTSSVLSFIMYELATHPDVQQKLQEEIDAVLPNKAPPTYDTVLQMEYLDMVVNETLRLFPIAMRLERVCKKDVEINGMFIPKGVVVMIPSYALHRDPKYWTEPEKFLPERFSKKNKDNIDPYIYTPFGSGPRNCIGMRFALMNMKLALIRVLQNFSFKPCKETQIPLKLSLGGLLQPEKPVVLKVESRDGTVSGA
# Experimental: as §1, §2, §3, §4, §5, §6, §7, §8
# CYP2D6 = CYP2D6 (Homo sapiens, UniProt P10635); assay: biochemical
# Chain of CYP2D6 (P10635 whole entry): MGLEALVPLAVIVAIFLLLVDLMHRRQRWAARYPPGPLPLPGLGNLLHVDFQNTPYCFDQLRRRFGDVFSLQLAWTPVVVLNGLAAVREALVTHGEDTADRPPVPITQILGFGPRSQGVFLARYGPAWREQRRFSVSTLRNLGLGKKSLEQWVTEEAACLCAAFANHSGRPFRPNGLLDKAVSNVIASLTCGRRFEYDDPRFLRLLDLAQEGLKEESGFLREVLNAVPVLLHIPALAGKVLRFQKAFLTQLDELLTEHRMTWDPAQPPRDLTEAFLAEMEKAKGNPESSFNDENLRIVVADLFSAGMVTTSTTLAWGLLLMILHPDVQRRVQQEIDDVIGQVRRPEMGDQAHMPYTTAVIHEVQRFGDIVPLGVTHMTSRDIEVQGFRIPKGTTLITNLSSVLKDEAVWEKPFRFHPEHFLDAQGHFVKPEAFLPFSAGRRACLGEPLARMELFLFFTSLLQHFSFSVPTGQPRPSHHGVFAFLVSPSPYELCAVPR
# Experimental: as §1, §9, §4, §5, §7, §8
# [2] = Microsomal metabolic stability; conditions: human; for half-life at 1 µM: liver microsomes
# Experimental: Permeability was measured across Caco-2 cells cultured in a Millipore 96-well Caco-2 plate. For apical to basolateral (A→B) permeability, 10 μM compound was added to the apical (A) side and amount of permeation was determined on the basolateral (B) side; for basolateral to apical (B→A) permeability, the compound was added to the B side and the amount of permeation was determine on the A side. Time points were taken at 2 h.
# Table S3. Metabolic stability. Metabolic stability was measured using human liver microsomes. […]
# CYP2C19 = CYP2C19 (Homo sapiens, UniProt P33261); assay: biochemical
# Chain of CYP2C19 (P33261 whole entry): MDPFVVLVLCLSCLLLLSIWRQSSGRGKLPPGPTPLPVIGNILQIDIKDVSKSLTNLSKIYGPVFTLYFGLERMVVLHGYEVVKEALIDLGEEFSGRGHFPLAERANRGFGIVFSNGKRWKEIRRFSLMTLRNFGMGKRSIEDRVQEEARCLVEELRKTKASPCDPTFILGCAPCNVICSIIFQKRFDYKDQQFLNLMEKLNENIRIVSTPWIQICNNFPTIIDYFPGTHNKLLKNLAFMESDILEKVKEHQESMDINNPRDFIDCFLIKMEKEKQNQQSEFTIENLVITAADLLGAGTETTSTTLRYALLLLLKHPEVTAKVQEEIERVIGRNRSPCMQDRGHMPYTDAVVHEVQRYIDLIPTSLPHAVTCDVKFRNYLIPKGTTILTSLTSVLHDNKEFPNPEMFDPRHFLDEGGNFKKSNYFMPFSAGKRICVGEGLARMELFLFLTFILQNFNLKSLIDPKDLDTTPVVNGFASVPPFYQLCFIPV
# Experimental: as §1, §2, §3, §4, §5, §6, §7, §8
# CYP2C8 = molecular target: T2, CYP2C8 (Homo sapiens, UniProt P10632); assay: biochemical
# T2 sequence (P10632 1-490): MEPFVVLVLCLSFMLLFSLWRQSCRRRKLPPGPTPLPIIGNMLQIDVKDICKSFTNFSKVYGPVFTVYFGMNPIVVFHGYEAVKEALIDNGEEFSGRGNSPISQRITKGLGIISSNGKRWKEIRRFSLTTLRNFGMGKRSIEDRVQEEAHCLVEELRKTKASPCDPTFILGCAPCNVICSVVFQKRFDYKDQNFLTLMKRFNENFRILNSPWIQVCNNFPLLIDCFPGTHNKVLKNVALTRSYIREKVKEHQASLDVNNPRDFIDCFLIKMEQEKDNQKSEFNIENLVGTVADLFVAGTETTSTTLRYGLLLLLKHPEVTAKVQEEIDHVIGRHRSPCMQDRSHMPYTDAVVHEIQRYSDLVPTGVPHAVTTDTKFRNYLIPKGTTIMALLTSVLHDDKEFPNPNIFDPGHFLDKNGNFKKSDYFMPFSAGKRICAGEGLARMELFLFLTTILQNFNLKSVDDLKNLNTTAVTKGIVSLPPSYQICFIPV
# Experimental: as §1, §2, §3, §4, §5, §6, §7, §8
# RAW 264.7 macrophages = assay: Cytotoxicity against infected macrophages; format: cell-based, murine; conditions: Mus musculus; infected RAW264:7 cells, 72 h; read-out: IC50 Macrophage
# Experimental: Murine RAW 264.7 macrophages (ATCC TIB-71) were infected with M. tuberculosis DsRed (DREAM8) ([29]) as described at a multiplicity of infection of 1 for 24 h, washed, harvested, and dispensed into 384-well plates ([30]). Infected macrophages were exposed to compounds for 72 h; cell nuclei were stained with SYBR green I. Plates were imaged with an ImageXpress Micro High Content Screening System (Molecular Devices) using a ×4 objective and FITC and Texas Red channels. MetaXpress was used to determine the integrated intensity of bacteria or macrophages. […] Isoniazid and staurosporine controls (maximum inhibition) and dose responses were included on every plate.
# [3] = Mean plasma fraction Unbound Fuplasma
Structure (SMILES),IC50 (CYP2B6) [µM],"recovery at 4 h, 5 µM [1] [%]","fraction unbound at 4 h, 5 µM ([1]; Mean plasma fraction Bound)","fraction unbound at 4 h, 5 µM [1, 3]",IC50 (CYP2C9) [µM],"IC50 at 10 min (CYP3A4; pH 7.4, probe midazolam) [µM]","IC50 at 10 min (CYP3A4; pH 7.4, probe testosterone) [µM]",IC50 (CYP2D6) [µM],half-life at 1 µM ([2]; pH 7.4) [min],"Percent remaining %REavg ([2]; microsomes, 5 min, 1 µM, pH 7.4) [%]","microsomal CLint at 1 µM ([2]; microsomes, pH 7.4) [µL/min/mg]","remaining at 5 min, 1 µM ([2]; microsomes, pH 7.4, Percent remaining %REavg) [%]",IC50 (CYP2C19) [µM],IC50 (CYP2C8) [µM],IC50 (RAW 264.7 macrophages) [µM]
"CCCCNC(=S)Nc1nc2ccccc2s1 [Molecule 1, 1-(benzo[d]thiazol-2-yl)-3-butylthiourea]",> 20,84.3,0.001,0.001,> 20,> 20,> 20,> 20,24,98.1,96,96.6,4.6,> 20,> 100
"CCCCNC(=S)Nc1nc(C)co1 [Molecule 21, 1-butyl-3-(4-methyloxazol-2-yl)thiourea]",> 20,83.9,0.037,0.037,> 20,> 20,11.9,> 20,13,–,179,–,> 20,> 20,6 ± 1
